This note sets out measurements from ChEMBL document CHEMBL5465560, “Selectivity Literature for EUbOPEN Chemogenomic Library” (2024).

Experiment [1] addresses CDK4/Cyclin D3 (Homo sapiens) (UniProt P11802+P30281). As to the kind of experiment: (§1) Selectivity interaction (KinomeScan (DiscoverX)) EUB0001619a CDK4. The class given is protein-complex assay. As to conditions: at 1 µM.
Experiment [2] concerns the target Cyclin-dependent kinase 4/cyclin D1 (Homo sapiens) (UniProt P11802+P24385). Described as §1. Type of experiment: protein-complex assay. The following applies: at 1 µM.
For experiment [3], the target named is T1, SNF-related serine/threonine-protein kinase (Homo sapiens) (UniProt Q9NRH2).
T1 sequence (whole entry): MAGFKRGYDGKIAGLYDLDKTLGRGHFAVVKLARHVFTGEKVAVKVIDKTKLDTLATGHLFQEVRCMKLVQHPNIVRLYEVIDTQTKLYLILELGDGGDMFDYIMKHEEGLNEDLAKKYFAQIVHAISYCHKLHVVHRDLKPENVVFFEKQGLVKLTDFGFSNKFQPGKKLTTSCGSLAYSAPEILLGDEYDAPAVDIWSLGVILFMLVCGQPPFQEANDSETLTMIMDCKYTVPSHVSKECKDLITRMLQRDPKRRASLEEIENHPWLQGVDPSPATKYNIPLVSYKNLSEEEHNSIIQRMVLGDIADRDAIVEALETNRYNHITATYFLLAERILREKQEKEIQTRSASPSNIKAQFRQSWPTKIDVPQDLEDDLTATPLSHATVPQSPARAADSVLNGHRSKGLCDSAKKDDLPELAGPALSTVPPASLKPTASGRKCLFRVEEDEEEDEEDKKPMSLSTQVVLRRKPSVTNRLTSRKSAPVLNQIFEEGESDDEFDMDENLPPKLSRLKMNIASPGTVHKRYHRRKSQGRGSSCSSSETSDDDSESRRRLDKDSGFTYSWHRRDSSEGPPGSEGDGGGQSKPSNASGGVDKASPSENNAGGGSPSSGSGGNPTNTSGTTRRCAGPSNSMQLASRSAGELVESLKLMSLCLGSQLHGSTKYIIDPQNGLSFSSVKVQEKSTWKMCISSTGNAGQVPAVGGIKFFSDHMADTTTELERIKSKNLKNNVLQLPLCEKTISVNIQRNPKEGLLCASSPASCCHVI
As to the kind of experiment: Selectivity interaction (KinomeScan (DiscoverX)) EUB0001619a SNRK. As to conditions: at 1 µM.

Experiment [4] addresses T2, MAP kinase-activated protein kinase 5 (Homo sapiens) (UniProt Q8IW41).
T2 sequence (whole entry): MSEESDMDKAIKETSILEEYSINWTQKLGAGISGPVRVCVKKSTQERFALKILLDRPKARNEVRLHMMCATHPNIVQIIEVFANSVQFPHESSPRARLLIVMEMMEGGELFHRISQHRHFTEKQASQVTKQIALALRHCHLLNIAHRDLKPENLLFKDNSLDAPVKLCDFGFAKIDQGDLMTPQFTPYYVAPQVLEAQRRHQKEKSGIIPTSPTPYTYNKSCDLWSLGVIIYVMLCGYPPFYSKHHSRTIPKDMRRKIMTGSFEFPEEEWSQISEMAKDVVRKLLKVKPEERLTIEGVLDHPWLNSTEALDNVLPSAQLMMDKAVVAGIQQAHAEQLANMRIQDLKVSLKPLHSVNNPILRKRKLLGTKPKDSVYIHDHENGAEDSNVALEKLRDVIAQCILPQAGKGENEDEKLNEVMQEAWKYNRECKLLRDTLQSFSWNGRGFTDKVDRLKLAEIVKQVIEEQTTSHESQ
Briefly: Selectivity interaction (KinomeScan (DiscoverX)) EUB0001619a MAPKAPK5. The following applies: at 1 µM.

Experiment [5] deals with Activin receptor type-2B (Homo sapiens) (UniProt Q13705). As to conditions: at 10 µM.
Experiment [6] addresses Serine/threonine-protein kinase PLK1 (Homo sapiens, UniProt P53350). As to the kind of experiment: Selectivity interaction (ActivX KiNativ screen (kinase selectivity in THP-1 cell lysates)) EUB0000639a PLK1. The following applies: lysate, at 1 µM. Type of experiment: subcellular.
In experiment [7] the target is T3, Aurora kinase A (Homo sapiens) (UniProt O14965).
T3 sequence (whole entry): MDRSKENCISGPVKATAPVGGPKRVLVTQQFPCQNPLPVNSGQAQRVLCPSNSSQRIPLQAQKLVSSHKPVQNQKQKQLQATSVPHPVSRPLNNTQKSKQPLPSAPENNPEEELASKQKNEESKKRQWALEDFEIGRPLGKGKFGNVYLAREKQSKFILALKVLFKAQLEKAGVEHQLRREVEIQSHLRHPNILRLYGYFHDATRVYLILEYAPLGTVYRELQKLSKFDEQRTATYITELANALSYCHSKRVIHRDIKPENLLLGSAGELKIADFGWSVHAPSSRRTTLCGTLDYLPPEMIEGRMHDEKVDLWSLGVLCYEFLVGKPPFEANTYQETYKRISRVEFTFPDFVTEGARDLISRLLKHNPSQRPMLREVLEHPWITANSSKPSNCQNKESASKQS
As to the kind of experiment: Selectivity interaction (Kinase panel (DSF assay)) EUB0001559a STK6. A general note: DSF heats the sample and reads unfolding from a dye or from intrinsic fluorescence.

The target in experiment [8] is [Pyruvate dehydrogenase (acetyl-transferring)] kinase isozyme 1, mitochondrial (Homo sapiens, UniProt Q15118). As to the kind of experiment: Selectivity interaction (ProQinase) EUB0000171b PDK1.
In experiment [9] the target is T4, Prostaglandin G/H synthase 2 (Homo sapiens) (UniProt P35354).
T4 sequence (whole entry): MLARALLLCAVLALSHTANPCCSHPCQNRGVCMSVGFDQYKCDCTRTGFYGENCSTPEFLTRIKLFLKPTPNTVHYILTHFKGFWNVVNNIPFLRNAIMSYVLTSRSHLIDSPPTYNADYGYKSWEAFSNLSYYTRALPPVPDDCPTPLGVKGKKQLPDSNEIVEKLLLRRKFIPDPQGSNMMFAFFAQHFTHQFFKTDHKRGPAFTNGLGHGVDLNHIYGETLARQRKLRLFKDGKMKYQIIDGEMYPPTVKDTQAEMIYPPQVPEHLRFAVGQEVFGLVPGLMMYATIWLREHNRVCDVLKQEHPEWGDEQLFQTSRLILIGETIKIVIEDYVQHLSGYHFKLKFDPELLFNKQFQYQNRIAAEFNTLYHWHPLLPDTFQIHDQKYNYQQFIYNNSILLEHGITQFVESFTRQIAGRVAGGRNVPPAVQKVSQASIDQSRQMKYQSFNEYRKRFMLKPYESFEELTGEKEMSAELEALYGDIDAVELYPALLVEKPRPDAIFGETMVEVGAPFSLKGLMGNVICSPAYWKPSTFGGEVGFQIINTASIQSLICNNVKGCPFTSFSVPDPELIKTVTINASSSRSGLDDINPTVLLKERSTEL
Briefly: Selectivity interaction (Panel of kinases, GPCRs, ion channels and transporters (enzymatic assay)) EUB0000223bCl PTGS2.

In a further experiment the target is B2 bradykinin receptor (Homo sapiens, UniProt P30411). Briefly: Selectivity interaction (Bradykinin 2 receptor binding assay, human recombinant ) EUB0000877a BDKRB2.
In experiment [10] the target is ALK tyrosine kinase receptor (Homo sapiens, UniProt Q9UM73). Briefly: Selectivity interaction (Kinase panel (33PanQinase(R) Activity Assay)) EUB0000877a ALK.
Experiment [11] has as its target Insulin receptor-related protein (Homo sapiens) (UniProt P14616). As to the kind of experiment: Selectivity interaction (KinomeScan (DiscoverX)) EUB0000092b INSRR. As to conditions: at 10 µM.

A word on the IC50: it is the midpoint of a concentration-inhibition curve.

Chain of Insulin receptor-related protein (Homo sapiens) (P14616 27-742 limits assumed): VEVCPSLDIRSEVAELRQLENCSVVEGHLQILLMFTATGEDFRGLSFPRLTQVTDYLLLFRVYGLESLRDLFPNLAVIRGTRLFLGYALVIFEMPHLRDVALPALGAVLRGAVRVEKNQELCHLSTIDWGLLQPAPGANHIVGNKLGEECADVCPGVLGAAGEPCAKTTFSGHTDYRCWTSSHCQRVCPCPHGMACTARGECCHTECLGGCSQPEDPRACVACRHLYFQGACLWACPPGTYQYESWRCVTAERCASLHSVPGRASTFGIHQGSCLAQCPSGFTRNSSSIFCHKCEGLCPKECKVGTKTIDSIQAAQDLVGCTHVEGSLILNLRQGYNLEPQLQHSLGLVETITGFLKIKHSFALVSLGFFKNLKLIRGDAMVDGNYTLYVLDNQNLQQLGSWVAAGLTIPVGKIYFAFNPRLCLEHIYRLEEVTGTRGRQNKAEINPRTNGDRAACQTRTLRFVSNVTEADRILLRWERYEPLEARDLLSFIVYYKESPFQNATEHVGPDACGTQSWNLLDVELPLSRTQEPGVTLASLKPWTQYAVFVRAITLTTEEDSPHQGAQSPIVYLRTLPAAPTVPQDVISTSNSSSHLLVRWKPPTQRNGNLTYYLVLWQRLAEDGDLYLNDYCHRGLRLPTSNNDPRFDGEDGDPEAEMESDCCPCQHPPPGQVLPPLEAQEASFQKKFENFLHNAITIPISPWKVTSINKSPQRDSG
Chain of Insulin receptor-related protein (Homo sapiens) (P14616 747-1297 limits assumed): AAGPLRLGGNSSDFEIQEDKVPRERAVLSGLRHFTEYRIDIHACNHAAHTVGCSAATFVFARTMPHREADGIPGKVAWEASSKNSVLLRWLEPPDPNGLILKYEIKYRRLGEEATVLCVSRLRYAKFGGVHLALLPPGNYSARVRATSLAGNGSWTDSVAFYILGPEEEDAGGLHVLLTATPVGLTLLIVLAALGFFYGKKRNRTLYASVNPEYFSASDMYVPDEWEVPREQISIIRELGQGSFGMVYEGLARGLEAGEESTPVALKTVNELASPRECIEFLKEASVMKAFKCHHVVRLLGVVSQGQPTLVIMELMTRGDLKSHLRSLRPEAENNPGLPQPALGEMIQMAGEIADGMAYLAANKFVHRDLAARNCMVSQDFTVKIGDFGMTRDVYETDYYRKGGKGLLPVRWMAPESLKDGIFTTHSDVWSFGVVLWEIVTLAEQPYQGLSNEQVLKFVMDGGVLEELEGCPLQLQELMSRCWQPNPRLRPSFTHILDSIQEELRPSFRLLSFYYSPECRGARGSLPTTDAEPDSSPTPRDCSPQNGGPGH
Chain of Serine/threonine-protein kinase PLK1 (P53350 whole entry): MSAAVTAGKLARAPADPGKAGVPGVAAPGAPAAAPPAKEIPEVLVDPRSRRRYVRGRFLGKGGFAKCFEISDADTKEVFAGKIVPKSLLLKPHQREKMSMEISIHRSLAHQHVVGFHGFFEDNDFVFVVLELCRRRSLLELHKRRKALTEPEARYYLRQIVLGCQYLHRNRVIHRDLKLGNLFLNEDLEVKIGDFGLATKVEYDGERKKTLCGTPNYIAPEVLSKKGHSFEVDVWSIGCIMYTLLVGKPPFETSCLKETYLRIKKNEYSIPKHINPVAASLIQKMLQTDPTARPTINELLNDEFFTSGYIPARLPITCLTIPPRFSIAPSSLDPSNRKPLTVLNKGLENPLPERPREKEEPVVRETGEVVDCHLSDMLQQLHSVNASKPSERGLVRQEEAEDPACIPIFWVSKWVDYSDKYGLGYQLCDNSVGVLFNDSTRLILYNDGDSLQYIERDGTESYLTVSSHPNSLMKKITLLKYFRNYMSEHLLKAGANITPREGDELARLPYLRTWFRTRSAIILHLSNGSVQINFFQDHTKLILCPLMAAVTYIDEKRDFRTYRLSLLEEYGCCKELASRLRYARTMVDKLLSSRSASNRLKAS
Chain of Activin receptor type-2B (Homo sapiens) (Q13705 whole entry): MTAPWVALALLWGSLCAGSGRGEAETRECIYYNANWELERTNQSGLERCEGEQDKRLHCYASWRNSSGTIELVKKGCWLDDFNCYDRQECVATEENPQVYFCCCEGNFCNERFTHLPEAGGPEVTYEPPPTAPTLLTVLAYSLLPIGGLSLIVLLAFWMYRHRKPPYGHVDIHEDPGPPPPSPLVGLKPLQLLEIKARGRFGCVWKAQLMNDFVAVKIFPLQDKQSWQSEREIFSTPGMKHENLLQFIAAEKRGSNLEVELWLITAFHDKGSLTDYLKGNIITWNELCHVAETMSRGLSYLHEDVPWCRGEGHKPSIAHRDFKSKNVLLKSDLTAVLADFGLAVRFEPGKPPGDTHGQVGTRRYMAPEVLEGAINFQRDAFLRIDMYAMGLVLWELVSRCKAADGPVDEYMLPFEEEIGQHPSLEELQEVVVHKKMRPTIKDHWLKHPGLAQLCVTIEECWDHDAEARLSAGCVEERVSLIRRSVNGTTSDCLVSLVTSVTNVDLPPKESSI
Chain of ALK tyrosine kinase receptor (Q9UM73 whole entry): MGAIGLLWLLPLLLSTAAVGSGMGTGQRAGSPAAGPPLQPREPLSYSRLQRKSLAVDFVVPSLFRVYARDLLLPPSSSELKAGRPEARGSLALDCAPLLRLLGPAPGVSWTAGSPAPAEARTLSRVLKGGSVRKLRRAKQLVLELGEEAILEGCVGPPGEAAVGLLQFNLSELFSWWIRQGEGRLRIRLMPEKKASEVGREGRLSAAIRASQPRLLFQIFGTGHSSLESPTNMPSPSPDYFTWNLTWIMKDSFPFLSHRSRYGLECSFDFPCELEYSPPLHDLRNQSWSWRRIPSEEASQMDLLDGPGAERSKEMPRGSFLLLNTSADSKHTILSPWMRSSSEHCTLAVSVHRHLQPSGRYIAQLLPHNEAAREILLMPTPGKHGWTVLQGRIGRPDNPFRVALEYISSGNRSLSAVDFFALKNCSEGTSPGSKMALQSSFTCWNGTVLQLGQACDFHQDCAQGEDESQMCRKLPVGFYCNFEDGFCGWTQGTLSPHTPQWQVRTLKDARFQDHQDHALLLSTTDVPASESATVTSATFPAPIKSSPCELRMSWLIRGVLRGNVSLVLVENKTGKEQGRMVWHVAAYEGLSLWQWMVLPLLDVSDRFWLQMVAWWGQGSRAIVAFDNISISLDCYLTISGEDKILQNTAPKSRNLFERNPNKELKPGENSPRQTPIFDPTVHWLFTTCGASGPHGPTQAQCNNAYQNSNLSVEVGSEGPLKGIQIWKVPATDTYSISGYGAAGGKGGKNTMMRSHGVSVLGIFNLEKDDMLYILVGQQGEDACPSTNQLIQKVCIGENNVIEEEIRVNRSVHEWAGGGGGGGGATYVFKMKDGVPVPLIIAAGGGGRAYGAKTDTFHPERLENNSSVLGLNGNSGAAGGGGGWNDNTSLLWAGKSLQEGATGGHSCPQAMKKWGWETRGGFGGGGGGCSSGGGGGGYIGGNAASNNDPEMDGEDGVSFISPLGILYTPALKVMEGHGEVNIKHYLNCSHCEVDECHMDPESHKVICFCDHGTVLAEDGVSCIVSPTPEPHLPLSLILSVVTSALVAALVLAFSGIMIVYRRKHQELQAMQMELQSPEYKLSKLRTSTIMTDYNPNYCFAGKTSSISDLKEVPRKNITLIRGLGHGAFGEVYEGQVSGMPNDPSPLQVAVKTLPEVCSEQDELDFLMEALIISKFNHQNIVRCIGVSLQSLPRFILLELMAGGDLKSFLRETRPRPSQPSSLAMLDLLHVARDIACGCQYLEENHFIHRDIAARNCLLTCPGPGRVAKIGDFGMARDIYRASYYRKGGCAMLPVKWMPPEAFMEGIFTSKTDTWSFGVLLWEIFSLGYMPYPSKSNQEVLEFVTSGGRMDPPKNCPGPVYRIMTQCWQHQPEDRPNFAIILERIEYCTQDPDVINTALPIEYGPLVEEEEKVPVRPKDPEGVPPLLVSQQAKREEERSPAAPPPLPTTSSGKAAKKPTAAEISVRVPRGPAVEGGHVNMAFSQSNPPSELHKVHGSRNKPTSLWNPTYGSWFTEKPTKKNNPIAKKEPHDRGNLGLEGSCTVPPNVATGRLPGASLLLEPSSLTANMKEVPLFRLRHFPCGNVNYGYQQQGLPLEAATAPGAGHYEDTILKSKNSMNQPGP
Chain of B2 bradykinin receptor (P30411 whole entry): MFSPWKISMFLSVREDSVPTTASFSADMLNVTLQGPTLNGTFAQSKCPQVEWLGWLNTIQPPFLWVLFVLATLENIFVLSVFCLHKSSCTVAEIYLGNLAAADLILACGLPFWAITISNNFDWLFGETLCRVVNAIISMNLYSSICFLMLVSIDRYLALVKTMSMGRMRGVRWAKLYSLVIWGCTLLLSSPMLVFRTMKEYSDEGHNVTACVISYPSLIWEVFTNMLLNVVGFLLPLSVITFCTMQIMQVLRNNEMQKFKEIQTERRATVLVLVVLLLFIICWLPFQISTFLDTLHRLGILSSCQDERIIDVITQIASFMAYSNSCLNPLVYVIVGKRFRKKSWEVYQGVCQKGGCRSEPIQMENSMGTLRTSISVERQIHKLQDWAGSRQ

For the molecule `N#Cc1cccc(-c2c[nH]c3ncnc(N4CCOCC4)c23)c1`, the % of control is 100% in experiment [1], 65% in [2], 100% in experiment [3] and 100% in experiment [4]. For `CCN(CC)CCCCNc1ncc2cc(-c3cc(OC)cc(OC)c3)c(NC(=O)NC(C)(C)C)nc2n1`, the % of control in [5] is 100%. Turning to `CC[C@@H]1[C@H](F)C(=O)N[C@@H]1COc1nccc2cc(C(N)=O)c(OC)cc12` [ZIMLOVISERTIB], the % of inhibition in experiment [6] is -2.8%. Molecule `CN(C(=O)c1cnn2cccnc12)c1cc2c(cc1N1CCOCC1)C(=O)N(C[C@@H](F)C(C)(C)O)C2` returned a dTM in experiment [7] of -0.6 K.

In the case of `C=CC(=O)Nc1cccc(C(=O)Nc2ccc(Nc3cc(-c4[nH]c(SC)nc4C)ccn3)cc2)c1`, the figures for the % of control in [8] (at 1 µM) and in experiment [8] (at 5 µM) were 74% and 39%, respectively. `COc1cc(C(=O)N2CC[C@@H](O)[C@@H](N)C2)cc2nc(-c3cc4ccccc4n3CC3CC3)n(C)c12` gave a pXC50 in experiment [9] of less than 4 M. Take `CCC(=O)N1CC[C@H](Nc2ncnc3c2CN(c2cnc(OC)c(C(F)(F)F)c2)CC3)C1` [LENIOLISIB]: the IC50 at B2 bradykinin receptor is greater than 30 µM; in [10], greater than 10 µM.

The molecule `CCC(=O)N1CCN(c2ccc(-n3c(=O)ccc4cnc5ccc(-c6cnc7ccccc7c6)cc5c43)cc2C(F)(F)F)CC1` displayed a % of control in [11] of 100%.
